Our source for the Concentration, VR and EC50 values is ChEMBL document CHEMBL1124205, “Synthesis and antiviral evaluation of 6'-substituted aristeromycins: potential mechanism-based inhibitors of S-adenosylhomocysteine hydrolase” (J Med Chem, 1988).

The subject of one assay is HEp-2. As to the kind of experiment: Cytotoxic concentration against HEP-2 cells. The class given is functional, cell-based. To be noted: Homo sapiens.
The test system of assay [1] is Vaccinia virus. As to the kind of experiment: Antiviral activity against vaccinia virus in HEP -2 cells. It is filed as functional, Orthopoxvirus vaccinia.
The subject of assay [2] is Vaccinia virus. To be noted: read-out: ED50.
Assay [3] deals with Human alphaherpesvirus 1. As to the kind of experiment: Antiviral activity against herpes simplex virus type 1 HSV-1 (F) expressed as viral rating (VR). It is filed as functional.
Assay [4] deals with Human alphaherpesvirus 2. As to the kind of experiment: Antiviral activity against herpes simplex virus type 2 HSV-2 (F) expressed as viral rating (VR). The class given is functional.
Assay [5] relates to Human alphaherpesvirus 2. As to the kind of experiment: Concentration at which 50% of the herpes simplex virus type 2 […] (F) induced cytopathic effect are inhibited is determined. The class given is functional. To be noted: read-out: ED50 (the source's name). (Damage to the host cells serves as the signal in cytopathic effect assays.)
Assay [6] concerns Human alphaherpesvirus 1. As to the kind of experiment: Concentration at which 50% of the herpes simplex virus type 1 HSV-1 (F) induced cytopathic effect are inhibited is determined. To be noted: read-out: ED50 (the source's name). It is filed as functional.
Assay [7] relates to Vaccinia virus. As to the kind of experiment: Inhibition of vaccinia virus induced cytopathic effects in HEP -2 cells. The class given is functional. To be noted: Orthopoxvirus vaccinia, read-out: ED50 (the source's name).

`Nc1ncnc2c1ncn2C1C(O)C(O)C(CO)C1O` (stereo not drawn) had a Concentration with HEp-2 above 320 µM. Moreover, the VR worked out at 0.8 with Vaccinia virus [1], 0.6 in the assay with Human alphaherpesvirus 1 [3] and 0.3 with Human alphaherpesvirus 2 [4]. Further, the EC50 in the assay on Vaccinia virus [2] amounted to 18 µM; in the assay with Human alphaherpesvirus 2 [5] it was 100 µM; in the assay with Human alphaherpesvirus 1 [6], 100 µM.
Consider `Nc1nc2c(ncn2COC(CO)CO)c(=O)[nH]1` [GANCICLOVIR], for which, in the assay on HEp-2, the Concentration is above 3200 µM. Further, the VR in the assay on Human alphaherpesvirus 1 [3] worked out at 1.4; in the assay with Human alphaherpesvirus 2 [4], 1.6. For the same compound, the EC50 with Human alphaherpesvirus 2 [5] is 1 µM; with Human alphaherpesvirus 1 [6] it was below 1 µM.
Take `C=C1C(CO)C(O)C(O)C1n1cnc2c(N)ncnc21` (stereo not drawn): the Concentration with HEp-2 stood at 50 µM. Moreover, the VR is listed as 0.9 in the assay with Vaccinia virus [1], 0 in the assay on Human alphaherpesvirus 1 [3] and 0.3 in the assay with Human alphaherpesvirus 2 [4]. Besides, the results for the EC50 in the assay on Vaccinia virus [2], in the assay with Human alphaherpesvirus 2 [5] and in the assay on Human alphaherpesvirus 1 [6] were 0.55 µM, 5 µM and 16 µM, respectively.
Consider `Nc1ncnc2c1ncn2[C@H]1[C@H](O)[C@H](O)[C@@H](CO)[C@H]1F`, for which, in the assay with HEp-2, the Concentration was 320 µM. In addition, the values for the VR in the assay with Vaccinia virus [1], in the assay on Human alphaherpesvirus 1 [3] and in the assay on Human alphaherpesvirus 2 [4] were 0.8, 0.4 and 0.4, respectively. The EC50 in the assay with Vaccinia virus [7] turned out to be 0.5 µM; in the assay with Human alphaherpesvirus 2 [5], 10 µM; in the assay with Human alphaherpesvirus 1 [6], 10 µM.
`Nc1ncnc2c1ncn2C1C(O)C(F)C(CO)C1O` (stereo not drawn): in the assay on HEp-2, the Concentration came to 225 µM. For the same compound, the VR in the assay on Human alphaherpesvirus 1 [3] and in the assay on Human alphaherpesvirus 2 [4] was 0 each time. Also, the EC50 in the assay with Human alphaherpesvirus 2 [5] and in the assay on Human alphaherpesvirus 1 [6] was 225 µM in each case.
As to `Nc1ncnc2c1ncn2[C@H]1[C@H](O)[C@H](O)[C@@H](CO)[C@@H]1F`, the Concentration in the assay with HEp-2 is above 320 µM. The VR in the assay on Vaccinia virus [1] is listed as 0.4; in the assay with Human alphaherpesvirus 1 [3], 0.1; in the assay with Human alphaherpesvirus 2 [4] it was 0.1. For the same compound, the EC50 in the assay with Vaccinia virus [2] was 63 µM; with Human alphaherpesvirus 2 [5], 90 µM; with Human alphaherpesvirus 1 [6], 90 µM.
`Nc1ncnc2c1ncn2[C@@H](C=O)O[C@@H](C=O)CO` came in with a Concentration in the assay with HEp-2 of 100 µM. Moreover, the values for the VR in the assay with Vaccinia virus [1] and in the assay on Human alphaherpesvirus 2 [4] were 1.3 and 0, respectively. The figures for the EC50 with Vaccinia virus [2] and with Human alphaherpesvirus 2 [5] were 0.5 µM and above 3200 µM, respectively.
